From the supplement of paper PMC11127212 come the findings set out here.

Data set [1] in a line: collision cross section (TWIMS, N2) of ion [M+Na]+; higher = larger gas-phase ion cross section. The settings on record: ionization: ESI positive; LC: HILIC, pH 3.0 ammonium formate. The method, then: (§1)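 Reference standards (20-100 uM) were separated by HILIC UPLC (BEH HILIC, 45 °C): acidic pH 3.0 ammonium formate/formic acid for ESI+ and basic pH 9.0 ammonium acetate/ammonia for ESI-. They were analysed on a Synapt G2-Si traveling-wave IMS-QTOF with nitrogen drift gas (WH 30 V; WV 800 m/s in ESI+ and 1000 m/s in ESI-). CCS (TWCCSN2, Å2) was calibrated with Major Mix IMS/TOF and LockCCS leucine enkephalin; inter-day RSD was <1%.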

Data set [2] can be described thus: collision cross section (TWIMS, N2) of ion [M+Na-2H]-; higher = larger gas-phase ion cross section. As to conditions: ionization: ESI negative; LC: HILIC, pH 9.0 ammonium acetate. The method, then:
as §1

The nature of data set [3]: retention time on BEH HILIC column (20 min gradient, 0.4 mL/min); higher = later elution. As to conditions: LC: HILIC. Here is the method:
(§2)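 Reference standards (20-100 uM) were separated by HILIC UPLC (BEH HILIC, 45 °C): acidic pH 3.0 ammonium formate/formic acid for ESI+ and basic pH 9.0 ammonium acetate/ammonia for ESI-. They were analysed on a Synapt G2-Si traveling-wave IMS-QTOF with nitrogen drift gas (WH 30 V; WV 800 m/s in ESI+ and 1000 m/s in ESI-).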

The nature of data set [4]: collision cross section (TWIMS, N2) of ion [M+H]+; higher = larger gas-phase ion cross section. The settings on record: ionization: ESI positive; LC: HILIC, pH 3.0 ammonium formate. Here is the method: as §2
Data set [5] in a line: collision cross section (TWIMS, N2) of ion [M+H-H2O]+; higher = larger gas-phase ion cross section. As to conditions: ionization: ESI positive; LC: HILIC, pH 3.0 ammonium formate. The method, then:
as §1

The nature of data set [6]: collision cross section (TWIMS, N2) of ion [M-H]-; higher = larger gas-phase ion cross section. As to conditions: ionization: ESI negative; LC: HILIC, pH 9.0 ammonium acetate. The method, then: as §2
The nature of data set [7]: collision cross section (TWIMS, N2) of ion [M]+; higher = larger gas-phase ion cross section. As to conditions: ionization: ESI positive; LC: HILIC, pH 3.0 ammonium formate. Here is the method: as §1
Setting [8] is: ionization: ESI negative, pH 9.0 ammonium acetate.
The mark [9] stands for this setting: ionization: ESI positive, pH 3.0 ammonium formate.

`O=C(O)Cc1cccc(O)c1` [3-hydroxyphenylacetic acid]: the collision cross section in data set [1] is listed as 139.98 Å²; in data set [2], 132.19 Å². The “retention time on BEH HILIC column” value in data set [3] (setting [8]) and in data set [3] (setting [9]) was 0.99 min in each case.
For `CCCCCC/C=C\CCCCCCCC(=O)O` [Palmitoleic acid], the collision cross section in data set [4] came out at 175.21 Å²; in data set [5], 161.08 Å²; in data set [6] it was 173.54 Å². The “retention time on BEH HILIC column” value amounted to 1.03 min in data set [3] (setting [8]) and 0.79 min in data set [3] (setting [9]).
Take `Cc1c[nH]c(=O)[nH]c1=O` [Thymine]: the values for the collision cross section in data set [4], in data set [5] and in data set [6] were 120.81 Å², 122.06 Å² and 120.89 Å², respectively. In addition, the “retention time on BEH HILIC column” value in data set [3] (setting [8]) was 1.03 min; in data set [3] (setting [9]), 1.05 min.
On the same counts, the results for `O=C(O)[C@@H]1C[C@@H](O)CN1` [Hydroxyproline] are 125.85 Å², 123.91 Å², 126.62 Å², 7.55 min and 7.47 min.
On the same counts, the results for `Cc1cccc(O)c1` [m-cresol] are 126.19 Å², 123.87 Å², 122.73 Å², 0.75 min and 0.77 min.
Regarding `C[C@@H](CCC(=O)O)CC(=O)O` [3-methyladipic acid], the collision cross section amounted to 136.22 Å² in data set [1], 135.93 Å² in data set [2] and 131.84 Å² in data set [6]. Besides, the entries for the “retention time on BEH HILIC column” value in data set [3] (setting [8]) and in data set [3] (setting [9]) were 0.93 min and 1.05 min, respectively.
As to `CN(CC(=O)O)C(=N)N` [Creatine], the collision cross section in data set [4] amounted to 122.23 Å²; in data set [5] it was 122.05 Å². Further, in data set [3] (setting [9]), the “retention time on BEH HILIC column” value was 7.83 min.
Consider `Nc1c(O)cccc1C(=O)O` [3-hydroxyanthranilic acid], for which the collision cross section is 121.78 Å² in data set [5] and 126.47 Å² in data set [6]. For the same compound, the “retention time on BEH HILIC column” value was 1.12 min in data set [3] (setting [8]) and 0.9 min in data set [3] (setting [9]).
The like results for `CNC[C@H](O)c1ccc(O)c(O)c1` [Epinephrine] were, in that order, 136.45 Å², 140.21 Å², 5.61 min and 5.91 min.
The like results for `N=C(NCCC[C@H](N)C(=O)O)N[C@@H](CC(=O)O)C(=O)O` [Arginosuccinic acid] were, in that order, 160.05 Å², 164.65 Å², 12.7 min and 11.2 min.
On to `C/C(=C/C(=O)O)C(=O)O` [Citraconic acid], for which the collision cross section in data set [5] is listed as 124.18 Å²; in data set [6], 120.54 Å². For the same compound, the “retention time on BEH HILIC column” value in data set [3] (setting [8]) and in data set [3] (setting [9]) was 0.99 min throughout.
Take `O=C(O)CNC(=O)Cc1ccccc1` [Phenylacetylglycine]: the values for the collision cross section in data set [4], in data set [5] and in data set [6] were 142.08 Å², 138.2 Å² and 146.28 Å², respectively. The “retention time on BEH HILIC column” value in data set [3] (setting [8]) came out at 2.16 min; in data set [3] (setting [9]) it was 2.11 min.
For `COc1cc([C@H](O)C(=O)O)ccc1O` [Vanillylmandelic acid], the values for the collision cross section in data set [5] and in data set [6] were 135.63 Å² and 144.75 Å², respectively. The results for the “retention time on BEH HILIC column” value in data set [3] (setting [8]) and in data set [3] (setting [9]) were 4.41 min and 2.72 min, respectively.
`C/C(=C\C(=O)O)CC(=O)O` [3-methylglutaconic acid]: the collision cross section in data set [1] came out at 132.11 Å²; in data set [2] it was 131.48 Å². The “retention time on BEH HILIC column” value in data set [3] (setting [8]) is 1.75 min; in data set [3] (setting [9]) it was 1.45 min.
Turning to `O=C(O)c1ccc(O)cc1` [4-hydroxybenzoic acid], the figures for the collision cross section in data set [5] and in data set [6] were 124.91 Å² and 123.01 Å², respectively. The “retention time on BEH HILIC column” value in data set [3] (setting [8]) was 0.67 min; in data set [3] (setting [9]), 0.73 min.
In the case of `Nc1ccccc1C(=O)C[C@H](N)C(=O)O` [L-kynurenine], the collision cross section is reported as 146.07 Å² in data set [4], 149.75 Å² in data set [1] and 140.8 Å² in data set [5]. Further, the “retention time on BEH HILIC column” value in data set [3] (setting [9]) was 5.74 min.
In data set [2], `O=C(O)c1ccc(C(=O)O)o1` [2,5-furandicarboxylic acid] registered a collision cross section of 129.41 Å². For the same compound, the “retention time on BEH HILIC column” value in data set [3] (setting [8]) came out at 7.28 min.
In the case of `O=C(O)c1cccnc1C(=O)O` [Quinolinic acid], the collision cross section was 130.12 Å² in data set [5] and 128.56 Å² in data set [6]. Also, the entries for the “retention time on BEH HILIC column” value in data set [3] (setting [8]) and in data set [3] (setting [9]) were 12.7 min and 2.56 min, respectively.
For `Cc1ncc(C[n+]2csc(CCO)c2C)c(N)n1` [Thiamine], the collision cross section in data set [7] turned out to be 162.11 Å²; in data set [6] it was 164.85 Å². In addition, the “retention time on BEH HILIC column” value in data set [3] (setting [8]) was found to be 8.94 min; in data set [3] (setting [9]), 8.96 min.
For the compound `O=c1cc[nH]c(=O)[nH]1` [Uracil], the collision cross section in data set [4] is 120.27 Å²; in data set [5] it was 120.58 Å²; in data set [6], 115.77 Å². In addition, the “retention time on BEH HILIC column” value in data set [3] (setting [8]) and in data set [3] (setting [9]) was 1.08 min in each case.
Consider `CCCCCCCC/C=C\CCCCCCCC(=O)O` [Oleic acid], for which the collision cross section in data set [1] turned out to be 181.57 Å²; in data set [2], 184.54 Å²; in data set [6], 179.19 Å². Also, the “retention time on BEH HILIC column” value in data set [3] (setting [8]) was 0.75 min; in data set [3] (setting [9]), 0.73 min.
For `CC(C)(CO)[C@@H](O)C(=O)NCCC(=O)O` [Pantothenic acid], the collision cross section is given as 145.63 Å² in data set [4], 150.01 Å² in data set [1], 144.55 Å² in data set [5] and 146.44 Å² in data set [6]. In addition, the “retention time on BEH HILIC column” value in data set [3] (setting [8]) was found to be 2.08 min; in data set [3] (setting [9]), 1.96 min.
